Patent USRE39682E1, “Farnesyl derivatives and pharmaceutical compositions containing them” (Ramot at Tel Aviv University Ltd., priority 1993, dated 2007)

Key:
[1] = test system: PPMTase activity in intact HEC1A, ras-transformed rat1 and melanoma cells; assay: Methylation of endogenous 21-24 KDa GTP-binding proteins in intact cells ([methyl-3H]methionine labelling); assay type: cell-based; conditions: 100 μM, FIG. 3
Procedure: Reactions were terminated after 10 min. by adding 500 μl chloroform methanol (1:1) and a subsequent addition of 250 μl H2O, mixing them and subsequently by phase separation. A portion of 125 μl of the chloroform phase was dried down at 40° C. and 200 μl of 1M NaOH/1% SDS solution were added thereto. The [^3H]methanol thus formed was counted by the vapor phase equilibrium method as described previously (Hakiai et al., Cell Mol. Neurobiol., 11, 415-431, (1991); Lenner et al., Cell Mol. Neurbiol., 12, 333 and 3351, (1992); Ben-Baruch et al., Biochem. Biophy. Res. Commun., 195, 282-288, (1993)). Typical background counts (i.e. counts of methylation with no AFC added) were 50-100 cpm while typical methylation counts with AFC as a substrate yielded 500 to 6000 cpm. Assays were performed in triplicate and background counts subtracted. Methylation of endogenous substrates, in intact cells, and [α-^32P] GTP-blot overlay assays and gel electrophoreses were performed as detailed previously (Hakiai et al., supra (1991); Lenner et al., supra (1993)).
HEC1A, rail, ras-transformed rail and B16F10 melanoma cells were also used for metabolic labelling of endogenous proteins with 100-300 μCi/ml [methyl-^3H]methionine which was also indicative of PPMTase activity. […]

[2] = test system: Ha-ras-transformed rat1 cells; assay: Growth of ras-transformed rat1 cells (cell counting); assay type: cell-based, rat; conditions: for EC50: Rattus norvegicus, 168 h, day 7 of drug treatment, estimated from dose response curves, read-out: Inhibition of rab-transformed rat1 cell growth EC50
From the text: (§1) The cell lines employed were rat1, -EJ, which are rat1 cells stably expressing Val- 12 activated human Ha-ras gene (Land H. et al., Nature, 304, 596-602, (1983)); V-raf-3T3, which are 3T3 cells stably expressing the V-raf gene (Xu, N., et al., Proc. Natl. Acad. Sci., 90, 6741-6745); RB-22, which are 3T3 cells stably expressing the rat Erb-B2 gene (Peles, et al., EMBO J., 10, 2077-2086 (1991)) CO6O cells (SV40-CHO), which are CHE cells stably expressing the SV-40 T-antigen gene (Lavi, Proc. Natl. Acad. Sci., 78, 6144-6148 (1981)); human endometrial carcinoma cell line HEC1A, which are cells that express activated K-ras (Enomoto T., Cancer Res., 50, 6139-6145; mouse B16F10 melanoma cells, rat pheochromocytoma PC12 cells, […] cells CHE and COS cells.
(§2) HEC1A, V-raf-3T3 and SV40-CHE cells were grown in Dulbecco's modified Eagle medium (DMEM) containing 10% fetal calf serum (FCS), 4 mM L-glutamine, 10 μg/ml streptomycin and 10 U/ml penicillin. Rat1 and -EJ cells were grown in the same medium except that it was supplemented with 12.5 U/ml nyostatin. RB-22 cells were grown in modified DMEM (1 mM sodium pyruvate, 20 mM sodium bicarbonate)/10% FCS containing 4 mM L-glutamine, […] streptomycin, 10 U/ml penicillin. PC-12 cells were grown in DMEM 15% FCS/5% horse serum and the above noted antibiotics.
HEC1A cells were plated in 24 well plates at a density of 5×10^3 cells per well and fed with 1 ml of medium. The cells were grown at 37° C. in a humidified atmosphere of 95%/5% air/CO2. All other cell types employed were plated in 24 well plates at a density of 2×10^3 cells per well and fed with the appropriate medium.
Cultures were treated with farnesyl derivatives or with solvent either 3 hrs following plating or one day after plating as indicated. […] Control cultures received 0.1% DMSO only. Cultures were fed on days 6, 7 and 9 of the experiment with the drugs or with solvent-containing media.
(§3) Cells were counted following 3, 7 and 10 days of beginning of treatments with drugs. For counting, cells were detached from plates with trypsin/EDTA, and collected by a low speed spin in the presence of DMEM/10% FCS. The pelleted cells were resuspended in a small volume of DMEM/10% FCS and counted under the microscope. Viability of cells was estimated by staining with (3-(4,5-dimethylthiosol-2-yl)-2,5-diphenyltetrazolium bromide (MTT) and microscopic examination of the stained and unstained cells, or spectrophotometric estimation (OD490, 590) of the total stain in each well. Non viable cells were estimated by the trypan blue exclusion method.
Cells were plated at a density 2×10^3/well and received either solvent or drugs one day later. Following 3, 7, or 10 days of the drugs-treatment as described above, cells were collected and the number of cells in each well was estimated by direct counting. […] The effect was apparent after a delay of at least three days. About 40-60% inhibition of cell growth was induced either by FTA or by FTS observed on days 7 and 10 of the treatment.

C57 black mice = conditions: mouse, in vivo
Procedure: Toxicity tests in intact animals were performed with C57 black and with bulb-C mice.
Four groups, each comprising 9 mice, were used. Animals of group one received 100 μl s.c. injections of 150 μM FTS in salient solution containing 1% DMSO (0.21 mg drug/kg body weight). The drug was injected every 3 days for 2 weeks. Group two, which served as controls, received the solvent/saline solution for the same period of time.

[3] = test system: SV-40 T-antigen transformed CHO cells; assay: Growth of T-antigen transformed cells; assay type: cell-based; conditions: 25 μM
From the text: as §1
as §2, with “PC-12 cells were grown in DMEM 15% FCS/5% horse serum and the above noted antibiotics.” left out
The potent PPMTase inhibitor FTS was used to examine selectivity of the drugs towards ras-dependent growth-signaling pathways. […] Cells were counted on day 5 of the experiment.

[4] = test system: HEC1A, rat1 and ras-transformed rat1 cells; assay: In vitro toxicity: MTT and trypan blue staining; assay type: cell-based; conditions: human (HEC1A), rat (rat1, ras-transformed rat1), 50 μM
From the text: as §3
In order to determine the long term effects of both FTA and FTS on cell survival, a colorometric method using MTT, which stains only live cells, was employed (Mosmen, F. J. Immunol. Meth., 65, 55-63 (1983), and tryptan blue exclusion staining in which only dead cells are stained, were employed. Cells were incubated with 50 μM of either FTA or FTS for a period of up to 5 days in culture. This concentration is 10-30 times the Ki values of FTS and FTA as calculated above. As control served cells incubated in 0.1% DMSO with no drug.

Row | Compound | inhibition of methylation of endogenous 21-24 KDa proteins [1] | EC50 [2] [µM] | drug concentration of maximum inhibition of cell growth ([2]; days 7 and 10 of treatment) [µM] | toxicity to C57 mice (C57 black mice) | active at concentrations times lower than those of FTA [2] [times] | Number of cells (% of control) ([2]; Hs-cis-transformed rat1, 25 μM, day 5) | inhibition of ras-transformed rat1 cell-growth ([2]; drugs on the very same day of plating) | effect on growth of T-antigen-transformed cells [3] | Number of cells (% of control) ([3]; Y-antigen transformed CHO, day 5) | cells stained with trypan blue (dead) [4]
1 | CC(C)=CCC/C(C)=C/CC/C(C)=C/CSCC(=O)O [FTA, S-trans, trans-farnesylthioacetic acid, reference compound] | able to inhibit | 25 to 50 | 50 |  |  |  |  |  |  | 
2 | CC(C)=CCC/C(C)=C/CC/C(C)=C/CSc1ccccc1C(=O)O [FTS, (3,7,11-trimethyl-dodeca-2,6,10-trienyl)-2-thiobenzoic acid] | able to inhibit | 5 to 10 |  | not toxic | 10 | 52 ± 4 % of control | observed already after 3 days in culture | no effects | 99 ± 9 % of control | less than 5%
